The values below come from ChEMBL document CHEMBL1201862, “PubChem BioAssay data set” (2004).

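Test compounds were applied to cells in 96-well plates for 48 hours at 5 doses. GI50 = concentration required for 50% inhibition of growth.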 Calls of active or inactive are those of the source. No stated cut-off is given here; in the data, active = GI50 up to about 1.1 µM and inactive = higher. Some results are limits rather than exact numbers.

Test systems include 786-0; A549; ACHN; CAKI-1; HT-29; IGROV-1; K562; LXFL 529; M14; NCI-H23; OVCAR-8; SF-295; SN12C; SW-620; Malme-3M; OVCAR-4; HCC 2998; Hs-578T; MCF7; T47D.
Common to all, as to assay: growth of human tumour cells (NCI), 48 h

In the case of `Cn1c2c(c3ccccc31)CCN(CCN1CCN(c3ccccc3)CC1)C2=O`, the GI50 in the assay on 786-0 was 68.2 µM (inactive); with A549, > 100 µM (inactive); with ACHN, > 100 µM (inactive); in the assay with CAKI-1, > 100 µM (inactive); in the assay with HT-29, > 100 µM (inactive); with IGROV-1, > 100 µM (inactive). The GI50 was > 100 µM (inactive) in the assay with K562; > 100 µM (inactive) in the assay on LXFL 529; > 100 µM (inactive) with M14; 33.5 µM (inactive) in the assay with NCI-H23; > 100 µM (inactive) in the assay on OVCAR-8; > 100 µM (inactive) in the assay with SF-295. Further, the GI50 with SN12C and in the assay on SW-620 was > 100 µM (inactive) in each case.

`O=C(CCc1nnc(S)[nH]1)Nc1ccc(Cl)c(Cl)c1`: the GI50 in the assay with 786-0 is > 100 µM (inactive); with A549, 40.9 µM (inactive); in the assay with ACHN, 12.6 µM (inactive); with CAKI-1, > 100 µM (inactive); in the assay with HT-29 it was > 100 µM (inactive); in the assay on IGROV-1, 26.5 µM (inactive). The GI50 in the assay on K562 is 9.1 µM (inactive); with LXFL 529, 13.2 µM (inactive); with M14 it was 27.4 µM (inactive); in the assay with Malme-3M, > 100 µM (inactive); in the assay with NCI-H23, 53.3 µM (inactive); in the assay on OVCAR-4, 58.2 µM (inactive). In addition, the GI50 in the assay on OVCAR-8 is > 100 µM (inactive); in the assay on SF-295 it was 50.6 µM (inactive); with SN12C it was > 100 µM (inactive); in the assay on SW-620, 41.3 µM (inactive).

For the molecule `O=C(/C=C/C(Cl)(Cl)Cl)Nc1ccc(Cl)cc1`, the GI50 in the assay on 786-0 was 1.55 µM (inactive); in the assay on A549 it was 3.99 µM (inactive); in the assay on ACHN it was 2.3 µM (inactive); in the assay on CAKI-1, 0.8 µM (active); in the assay with HCC 2998, 6.44 µM (inactive); in the assay on HT-29, 1.94 µM (inactive). Besides, the GI50 is 25.4 µM (inactive) with Hs-578T; 0.452 µM (active) in the assay on IGROV-1; 1.62 µM (inactive) in the assay on K562; 4.62 µM (inactive) in the assay on M14; 17.5 µM (inactive) in the assay with MCF7; 5.37 µM (inactive) in the assay with Malme-3M. In addition, the GI50 in the assay on NCI-H23 was 3.36 µM (inactive); in the assay on OVCAR-4 it was 1.82 µM (inactive); with OVCAR-8, 14.9 µM (inactive); with SF-295, 12.4 µM (inactive); in the assay with SN12C, 7.24 µM (inactive); with SW-620, 3.38 µM (inactive). The GI50 in the assay on T47D is 2.15 µM (inactive).

For `CC(=O)O[C@@]12CO[C@@H]1CC(O)[C@@]1(C)C(=O)[C@H](O)C3=C(C)C(O)C[C@@](O)(C(OC(=O)c4ccccc4)C12)C3(C)C` (some centres undefined), the GI50 was 2.9 µM (inactive) with 786-0; 3.81 µM (inactive) in the assay with A549; 51.2 µM (inactive) in the assay on ACHN; 24.8 µM (inactive) in the assay on CAKI-1; 1.72 µM (inactive) with HCC 2998; 0.385 µM (active) in the assay on HT-29. Also, the GI50 is 0.252 µM (active) with Hs-578T; 1.88 µM (inactive) in the assay with IGROV-1; 0.619 µM (active) with K562; 2.59 µM (inactive) in the assay with M14; 0.463 µM (active) with MCF7; 2.54 µM (inactive) in the assay on Malme-3M. For the same molecule, the GI50 with NCI-H23 was 0.869 µM (active); in the assay with OVCAR-4, > 90.8 µM (inactive); with OVCAR-8, 3.13 µM (inactive); with SF-295, 5.32 µM (inactive); in the assay on SN12C it was 2.18 µM (inactive); in the assay with SW-620, 0.448 µM (active). Further, the GI50 in the assay with T47D is > 100 µM (inactive).

As for `O=C(O)Cc1cccc2c1Oc1ccccc1S2`, the GI50 in the assay on 786-0, with A549, with ACHN, in the assay on HCC 2998, in the assay with HT-29 and with IGROV-1 was > 100 µM (inactive) in each case. Besides, the GI50 in the assay on K562, with LXFL 529, in the assay on M14, in the assay with Malme-3M, with NCI-H23 and in the assay with OVCAR-4 was > 100 µM (inactive) in each case. In addition, the GI50 in the assay on OVCAR-8, in the assay on SF-295, in the assay on SN12C and in the assay on SW-620 was > 100 µM (inactive) throughout.
